# Data reported in EP0978517A2, “Triazolopurines, process for their preparation and their use as medicaments” (Boehringer Ingelheim Pharma KG, priority 1996, dated 1998).
# Tests used:
# [1] = target: T1, human A1 adenosine Receptor (Homo sapiens, UniProt P30542); test: A1 receptor binding, determined in analogy to Ensinger et al. (Table 20); conditions: Rezeptorbindungswerte, Tabelle 20, read-out: KiA1
# T1 sequence (P30542 1-326): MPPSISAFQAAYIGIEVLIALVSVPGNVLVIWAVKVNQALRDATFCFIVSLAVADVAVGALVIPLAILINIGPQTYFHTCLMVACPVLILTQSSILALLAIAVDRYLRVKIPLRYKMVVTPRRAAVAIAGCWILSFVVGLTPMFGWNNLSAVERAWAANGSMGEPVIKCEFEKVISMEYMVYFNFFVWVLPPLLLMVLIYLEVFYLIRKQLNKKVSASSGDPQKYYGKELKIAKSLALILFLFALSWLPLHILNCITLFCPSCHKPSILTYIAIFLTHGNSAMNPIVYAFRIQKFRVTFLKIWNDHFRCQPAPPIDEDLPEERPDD
# Excerpt: Die ermittelten A1-Rezeptorbindungswerte wurden in Analogie zu Ensinger et al. in "Cloning and functional characterisation of human A1 adenosine Receptor - Biochemical and Biophysical Communications, Vol 187, No. 2, 919-926, 1992" bestimmt und sind in Tabelle 20 zusammengefaßt.
# (§1) Die nachfolgende Tabelle enthält KiA1 (human) und KiA2 (Ratte) Rezeptorbindungswerte. Tabelle 20
# A2-Rezeptor = A2-Rezeptor (Rattus norvegicus, UniProt P30543); test: A2 receptor binding (Table 20); conditions: Ratte; Rezeptorbindungswerte, Tabelle 20; read-out: KiA2
# Excerpt: as §1
# [2] = target: T2, human A3-adenosine receptor (Homo sapiens, UniProt P0DMS8); test: A3 receptor binding, determined in analogy to Salvatore et al. (Table 21); conditions: Rezeptorbindungswerte, Tabelle 21, read-out: KiA3
# T2 sequence (P0DMS8 1-318): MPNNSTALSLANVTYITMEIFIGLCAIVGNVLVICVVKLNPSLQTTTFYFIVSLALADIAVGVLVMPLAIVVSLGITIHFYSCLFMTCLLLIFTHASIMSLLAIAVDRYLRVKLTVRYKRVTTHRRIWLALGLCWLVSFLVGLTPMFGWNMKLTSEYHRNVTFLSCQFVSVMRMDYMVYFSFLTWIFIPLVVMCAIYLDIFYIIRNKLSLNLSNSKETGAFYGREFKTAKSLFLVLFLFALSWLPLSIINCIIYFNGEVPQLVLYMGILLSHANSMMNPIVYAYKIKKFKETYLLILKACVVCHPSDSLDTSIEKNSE
# Excerpt: Die in Tabelle 21 zusammengefassten A3-Rezeptorbindungswerte wurden in Analogie zu Salvatore et al. "Molecular cloning and characterization of the human A3-adenosine receptor" (Proc. Natl. Acad. Sci. USA 90, 10365-10369, 1993) ermittelt.
# Die nachfolgende Tabelle enthält KiA3 (human) Rezeptorbindungswerte. Tabelle 21
# Sequence of A2-Rezeptor (P30543 whole entry): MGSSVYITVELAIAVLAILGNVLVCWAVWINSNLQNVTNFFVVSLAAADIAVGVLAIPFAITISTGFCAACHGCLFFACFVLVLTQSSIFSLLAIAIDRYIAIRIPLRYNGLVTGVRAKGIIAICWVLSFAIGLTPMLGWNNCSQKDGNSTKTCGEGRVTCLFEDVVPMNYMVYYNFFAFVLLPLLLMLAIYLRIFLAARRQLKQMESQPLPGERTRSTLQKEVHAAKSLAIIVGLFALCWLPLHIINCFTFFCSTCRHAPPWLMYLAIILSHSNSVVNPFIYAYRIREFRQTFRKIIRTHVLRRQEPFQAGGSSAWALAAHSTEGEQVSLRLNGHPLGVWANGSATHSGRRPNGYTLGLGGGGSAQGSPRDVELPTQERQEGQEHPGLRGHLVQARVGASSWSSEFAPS
Structure (SMILES),Ki [1],Ki (A2-Rezeptor),Ki [2]
CCCn1c2nc(C3CCCC3)[nH]c2c(=O)n2nc(C(C)C)nc12 [Beispiel 37],6.4 nM,307 nM,–
CCCCCn1c2nc(C3CCCC3)[nH]c2c(=O)n2nc(Cc3ccccc3)nc12 [Beispiel 25],10.3 nM,1230 nM,26 nM
CCCn1c2nc(CC)[nH]c2c(=O)n2nc(Cc3ccccc3)nc12 [Beispiel 6],–,–,2 nM
CCCCn1c2nc[nH]c2c(=O)n2nc(Cc3ccccc3)nc12 [Beispiel 4],–,–,2.3 nM
CCCn1c2nc(C3CCCC3)[nH]c2c(=O)n2nc(Cc3ccccc3)nc12 [Beispiel 10],1.7 nM,730 nM,–
CCc1nc2c([nH]1)c(=O)n1nc(COc3ccc(OC)cc3)nc1n2CC [compound 82],–,–,25 nM
CCCn1c2nc(CC)[nH]c2c(=O)n2nc(C3CCCC3)nc12 [Beispiel 23],–,–,2 nM
CCCn1c2nc(N3CCOCC3)[nH]c2c(=O)n2nc(Cc3ccccc3)nc12 [Beispiel 13],5.2 nM,82 nM,–
O=c1c2[nH]cnc2[nH]c2nc(C3CCCC3)nn12 [Beispiel 19],–,–,3.8 nM
CCn1c2nc(C3CCCC3)[nH]c2c(=O)n2ncnc12 [Beispiel 30],81.5 nM,3290 nM,–
CCCn1c2nc(C3CCCC3)[nH]c2c(=O)n2nc(C(C)(C)C)nc12 [Beispiel 39],6 nM,539 nM,–
CCCn1c2nc[nH]c2c(=O)n2nc(Cc3ccccc3)nc12 [Beispiel 3],–,–,4.7 nM
Cn1c2nc(C3CCCC3)[nH]c2c(=O)n2nc(Cc3ccccc3)nc12 [Beispiel 8],1.9 nM,363 nM,–
CCn1c2nc(C(C)(C)C)[nH]c2c(=O)n2nc(Cc3ccccc3)nc12 [compound 68],–,–,30 nM
CCCc1nc2c([nH]1)c(=O)n1nc(Cc3ccccc3)nc1n2CCC [Beispiel 7],8.1 nM,158 nM,–
CCCc1nc2n(CCC)c3nc(C4CCCC4)[nH]c3c(=O)n2n1 [Beispiel 36],5.8 nM,731 nM,–
CCCCn1c2nc(C3CCCC3)[nH]c2c(=O)n2nc(Cc3ccccc3)nc12 [Beispiel 11],8.3 nM,345 nM,–
CCn1c2nc(C3CCCC3)[nH]c2c(=O)n2nc(Cc3ccccc3)nc12 [Beispiel 9],1.4 nM,422 nM,–
CCCn1c2nc(N(C)C)[nH]c2c(=O)n2nc(Cc3ccccc3)nc12 [compound 65],–,–,3 nM
CCc1nc2c([nH]1)c(=O)n1nc(CCc3ccccc3)nc1n2CC [compound 78],–,–,5.3 nM
CCCn1c2nc(C3CCCC3)[nH]c2c(=O)n2nc(-c3ccco3)nc12 [Beispiel 48],11.4 nM,4460 nM,–
O=c1c2[nH]c(C3CCCC3)nc2n(Cc2ccccc2)c2nc(Cc3ccccc3)nn12 [Beispiel 12],–,–,20 nM
CCCCc1nc2n(CCC)c3nc(C4CCCC4)[nH]c3c(=O)n2n1 [Beispiel 38],6.4 nM,532 nM,22 nM
